Type: physicochemical
Text: Each of the sorbitan esters is capable of solubilizing up to 100 g per liter of neat propyl magnolol or butyl magnolol. In certain embodiments, the amount of sorbitan ester is at least 10 times the weight of the propyl magnolol or butyl magnolol in the composition.
Polysorbate 80 is capable of solubilizing up to 50 g per liter of neat isopropyl magnolol or isobutyl magnolol. In certain embodiments, the amount of polysorbate 80 is at least 20 times the weight of the isopropyl magnolol or isobutyl magnolol in the composition. It was surprising that polysorbate 80 was able to solubilize these analogs. Isobutyl magnolol is not soluble in polysorbate 20, polysorbate 40, or polysorbate 85.
Polysorbate 20 is capable of solubilizing up to 100 g per liter of neat isopropyl magnolol. In certain embodiments, the amount of polysorbate 20 is at least 10 times the weight of the isopropyl magnolol in the composition. It was surprising that polysorbate 20 was able to solubilize these analogs. Isopropyl magnolol is only soluble up to 10 g per liter in polysorbate 40 or polysorbate 85.
It was surprising that these sorbitan esters were capable of solubilizing these analogs.

SMILES: CC(C)Cc1ccc(O)c(-c2cc(CC(C)C)ccc2O)c1 [isobutyl magnolol, 5,5′-di-isobutylbiphenyl-2,2′-diol]
- amount of neat analog that polysorbate 80 is capable of solubilizing: up to 50 g per liter
- solubility in polysorbate 20 (in words): not soluble
- solubility in polysorbate 40 (in words): not soluble

SMILES: CCCc1ccc(O)c(-c2cc(CCC)ccc2O)c1 [propyl magnolol, 5,5′-di-n-propylbiphenyl-2,2′-diol]
- amount of neat analog that the sorbitan ester is capable of solubilizing: up to 100 g per liter

SMILES: CCCCc1ccc(O)c(-c2cc(CCCC)ccc2O)c1 [butyl magnolol, 5,5′-di-n-butylbiphenyl-2,2′-diol]
- amount of neat analog that the sorbitan ester is capable of solubilizing: up to 100 g per liter

SMILES: CC(C)c1ccc(O)c(-c2cc(C(C)C)ccc2O)c1 [isopropyl magnolol, 5,5′-di-isopropylbiphenyl-2,2′-diol]
- amount of neat analog that polysorbate 20 is capable of solubilizing: up to 100 g per liter
- amount of neat analog that polysorbate 80 is capable of solubilizing: up to 50 g per liter
- solubility in polysorbate 40: up to 10 g per liter
- solubility in polysorbate 85: up to 10 g per liter
